Test [1] deals with T1, human A2BAR (Homo sapiens, UniProt P29275).
T1 construct: host or cells: CHO-spap
T1 sequence (P29275 1-332): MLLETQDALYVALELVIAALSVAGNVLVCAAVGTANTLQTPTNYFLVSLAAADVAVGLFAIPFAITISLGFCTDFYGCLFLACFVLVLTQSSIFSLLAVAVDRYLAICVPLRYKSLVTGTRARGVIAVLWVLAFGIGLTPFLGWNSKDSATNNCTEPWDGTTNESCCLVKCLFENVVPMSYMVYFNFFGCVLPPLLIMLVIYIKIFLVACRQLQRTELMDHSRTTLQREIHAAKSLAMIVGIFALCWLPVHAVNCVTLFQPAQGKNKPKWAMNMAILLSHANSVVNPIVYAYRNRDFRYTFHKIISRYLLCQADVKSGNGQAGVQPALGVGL
As to the kind of experiment: [3H]PSB-603 displacement on CHO-spap-hA2BAR membranes. The test is classed as binding.

For test [2], the target named is T1, human A2BAR. As to the kind of experiment: [3H]PSB-603 competition association assay. The test is classed as binding. To be noted: for Kd: read-out: Kinetic KD (koff/kon); for RT: RT = 1/koff, competing ligand at 1.0-fold IC50, up to 3 hr. The protocol: In all radioligand binding experiments, CHO-spap-hA2BAR membranes were thawed and homogenized using an Ultra Turrax homogenizer at 24,000 rpm (IKA-Werke GmbH & Co.KG, Staufen, Germany), diluted in assay buffer to the desired concentration (10–30 μg per well or Eppendorf tube). All materials were brought to 25 °C, 30 min prior to the experiment. ZM241385 (10 μM) was used to determine nonspecific binding (NSB).
Addition of CHO-spap-hA2BAR membrane aliquots initiated the association. The amount of receptor-bound radioligand was determined at different time points up to 3 hr. After 3 hr the incubation was terminated and samples were obtained as described under “Displacement experiments”.
All competition association data were globally fitted.

Test [3] has as its target T2, A1 adenosine receptor (Rattus norvegicus, UniProt P25099).
T2 sequence (P25099 1-326): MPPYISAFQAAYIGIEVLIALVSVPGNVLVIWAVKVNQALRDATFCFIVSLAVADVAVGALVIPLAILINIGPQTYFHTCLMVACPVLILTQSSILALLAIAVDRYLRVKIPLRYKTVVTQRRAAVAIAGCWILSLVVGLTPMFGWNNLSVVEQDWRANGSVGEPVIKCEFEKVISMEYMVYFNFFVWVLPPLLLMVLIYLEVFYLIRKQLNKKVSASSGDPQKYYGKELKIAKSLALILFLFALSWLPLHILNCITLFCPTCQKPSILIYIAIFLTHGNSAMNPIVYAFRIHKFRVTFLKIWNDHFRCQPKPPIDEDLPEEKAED
The experiment in a line: Radioligand binding, rat A1 ([3H]R-PIA, HEK-293). To be noted: HEK-293, [3H]R-PIA. An excerpt:
(§1) The A2B receptor selectivity was generally low, especially at the rat A2B receptor.

In the next test the target is T3, A2B adenosine receptor (Rattus norvegicus, UniProt P29276).
T3 sequence (P29276 1-332): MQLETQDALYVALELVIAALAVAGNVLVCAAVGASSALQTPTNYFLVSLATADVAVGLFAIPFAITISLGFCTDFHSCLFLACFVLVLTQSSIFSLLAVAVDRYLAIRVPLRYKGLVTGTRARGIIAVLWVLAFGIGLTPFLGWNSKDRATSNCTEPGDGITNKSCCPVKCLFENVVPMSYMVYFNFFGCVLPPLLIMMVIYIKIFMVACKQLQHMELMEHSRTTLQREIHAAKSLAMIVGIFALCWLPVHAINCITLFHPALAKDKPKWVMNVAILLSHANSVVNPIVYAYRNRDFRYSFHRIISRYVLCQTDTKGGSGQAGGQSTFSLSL
The experiment in a line: Radioligand binding, rat A2B ([125I]I-ABOPX, HEK-293). To be noted: rat (r), HEK-293, [125I]I-ABOPX.

Test [4] addresses A2A adenosine receptor (Rattus norvegicus, UniProt P30543). As to the kind of experiment: Radioligand binding, rat A2A ([3H]CGS21680, HEK-293). To be noted: rat (r), HEK-293, [3H]CGS21680.
The target in test [5] is T4, A1 adenosine receptor (Homo sapiens, UniProt P30542).
T4 sequence (P30542 1-326): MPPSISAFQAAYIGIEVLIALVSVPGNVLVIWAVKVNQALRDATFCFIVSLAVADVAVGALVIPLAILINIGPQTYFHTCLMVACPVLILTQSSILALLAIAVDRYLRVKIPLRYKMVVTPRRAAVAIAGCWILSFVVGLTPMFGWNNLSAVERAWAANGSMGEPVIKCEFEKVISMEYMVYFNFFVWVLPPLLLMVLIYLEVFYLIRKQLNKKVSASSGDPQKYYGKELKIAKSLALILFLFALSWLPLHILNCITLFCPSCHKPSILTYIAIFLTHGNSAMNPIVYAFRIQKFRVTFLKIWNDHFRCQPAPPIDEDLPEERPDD
The experiment in a line: Radioligand binding, human A1 ([3H]R-PIA, HEK-293). To be noted: HEK-293, [3H]R-PIA.
Source text: as §1

Test [6] has as its target A2A adenosine receptor (Homo sapiens, UniProt P29274). As to the kind of experiment: Radioligand binding, human A2A ([3H]CGS21680, HEK-293). To be noted: HEK-293, [3H]CGS21680.
The mark [7] stands for this setting: […] [3H]PSB-603, 2 h, 25 °C, read-out: Ki (converted).
The mark [8] stands for this setting: […] [3H]PSB-603, 2 h, 25 °C, read-out: pKi (converted).

“And” between values parts separate entries of the source, which are not always exact repeats. Identical values can stand only once. Like-named read-outs stand apart in the source and are kept apart here.

Chain of A2A adenosine receptor (Rattus norvegicus, UniProt P30543) (P30543 whole entry): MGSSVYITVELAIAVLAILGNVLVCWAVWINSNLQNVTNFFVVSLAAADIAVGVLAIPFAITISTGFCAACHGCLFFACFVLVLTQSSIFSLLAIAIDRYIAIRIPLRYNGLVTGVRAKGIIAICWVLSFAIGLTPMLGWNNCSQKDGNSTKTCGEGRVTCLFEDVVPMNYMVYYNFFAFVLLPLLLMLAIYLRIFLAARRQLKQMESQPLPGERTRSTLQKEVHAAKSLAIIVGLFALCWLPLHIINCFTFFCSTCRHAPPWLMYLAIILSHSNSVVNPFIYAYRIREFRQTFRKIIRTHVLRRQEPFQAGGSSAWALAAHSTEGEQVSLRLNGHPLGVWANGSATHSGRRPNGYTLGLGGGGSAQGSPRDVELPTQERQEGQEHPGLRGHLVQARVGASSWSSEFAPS
Chain of A2A adenosine receptor (Homo sapiens, UniProt P29274) (P29274 whole entry): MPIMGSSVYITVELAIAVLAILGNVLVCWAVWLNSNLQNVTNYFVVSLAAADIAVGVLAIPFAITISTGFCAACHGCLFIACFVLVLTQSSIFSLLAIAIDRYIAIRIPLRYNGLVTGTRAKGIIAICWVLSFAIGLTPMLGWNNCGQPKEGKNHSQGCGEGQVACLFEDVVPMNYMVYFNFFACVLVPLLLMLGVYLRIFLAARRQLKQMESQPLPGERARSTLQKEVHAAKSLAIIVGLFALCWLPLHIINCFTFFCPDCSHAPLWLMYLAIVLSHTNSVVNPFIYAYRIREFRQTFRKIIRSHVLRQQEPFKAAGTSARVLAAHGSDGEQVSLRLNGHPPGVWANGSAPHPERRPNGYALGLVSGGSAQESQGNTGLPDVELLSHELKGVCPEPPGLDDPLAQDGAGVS

In the case of “2-(4-(2,6-dioxo-1,3-dipropyl-2,3,6,7-tetrahydro-1H-purin-8-yl) phenoxy)-N-(pyridin-4-ylmethyl)acetamide [Compound 9]”, on human A2BAR [1] ([…] [3H]PSB-603, 2 h, 25 °C), the negative logarithm of the Ki (pKi) – broadly, −log10 of the Ki, conventionally taken in molar units – worked out at 5.87 ± 0.16. The Ki on human A2BAR [1] (setting [7]) was 1350 nM.

As to `CCCn1c(=O)c2[nH]c(-c3ccc(OCC(=O)Nc4cc[nH]n4)cc3)nc2n(CCC)c1=O` [Compound 6, 2-(4-(2,6-dioxo-1,3-dipropyl-2,3,6,7-tetrahydro-1H-purin-8-yl)phenoxy)-N-(1H-pyrazol-3-yl)acetamide], the Ki at human A2BAR [1] (setting [7]) was 5480 nM.

In the case of `CCCn1c(=O)c2[nH]c(-c3ccc(OCC(=O)NCc4ccc(O)c(O)c4)cc3)nc2n(CCC)c1=O` [Compound 23, N-(3,4-dihydroxybenzyl)-2-(4-(2,6-dioxo-1,3-dipropyl-2,3,6,7-tetrahydro-1H-purin-8-yl)phenoxy)acetamide], the Ki at human A2BAR [1] (setting [7]) is 24.4 nM. Further, the Kd at human A2BAR [2] came to 27 ± 7.9 nM. In addition, the koff (commonly the rate constant with which the complex falls apart) on human A2BAR [2] (read-out: koff (converted)) is 0.00165 s⁻¹. Moreover, the kon – broadly, the second-order rate constant of association – on human A2BAR [2] (read-out: kon (converted)) was 66700 M⁻¹ s⁻¹.

As to `CCCn1c(=O)c2[nH]c(-c3ccc(OCC(=O)Nc4ccccc4)cc3)nc2n(CCC)c1=O` [Compound 8], on human A2BAR [1] (setting [7]), the Ki was 1.93 nM. The RT on human A2BAR [2] (25 °C) is 46 min and 46 ± 13 min. Further, the koff at human A2BAR [2] (read-out: koff (converted)) was 0.000367 s⁻¹. Further, the kon at human A2BAR [2] (read-out: kon (converted)) is 250000 M⁻¹ s⁻¹.

For `CCCn1c(=O)c2[nH]c(-c3ccc(OCC(=O)Nc4cnccn4)cc3)nc2n(CCC)c1=O` [Compound 10, 2-(4-(2,6-dioxo-1,3-dipropyl-2,3,6,7-tetrahydro-1H-purin-8-yl)phenoxy)-N-(pyrazin-2-yl)acetamide], on human A2BAR [1] (setting [7]), the Ki was 6950 nM.

As for `CCCn1c(=O)c2[nH]c(-c3ccc(OCC(=O)NC4CC4)cc3)nc2n(CCC)c1=O` [Compound 3, N-cyclopropyl-2-(4-(2,6-dioxo-1,3-dipropyl-2,3,6,7-tetrahydro-1H-purin-8-yl)phenoxy)acetamide], the Ki on human A2BAR [1] (setting [7]) was 36.3 nM; on A1 adenosine receptor [3], 10.7 ± 1.75 nM; at A2B adenosine receptor it was 36.6 ± 5.1 nM; at A2A adenosine receptor [4] it was 51.7 ± 19.6 nM. Also, at human A2BAR [2] (25 °C), the RT was 0.9 min and 0.9 ± 0.0 min. For the same molecule, at human A2BAR [2] (read-out: koff (converted)), the off-rate (koff) is 0.0178 s⁻¹. In addition, the kon on human A2BAR [2] (read-out: kon (converted)) is 600000 M⁻¹ s⁻¹.

For the molecule `CCCn1c(=O)c2[nH]c(-c3ccc(OCC(=O)NC4CCC4)cc3)nc2n(CCC)c1=O` [Compound 4, N-cyclobutyl-2-(4-(2,6-dioxo-1,3-dipropyl-2,3,6,7-tetrahydro-1H-purin-8-yl)phenoxy)acetamide], the Ki at human A2BAR [1] (setting [7]) is 61400 nM; at human A2BAR [1] ([…] [3H]PSB-603, 2 h, 25 °C, read-out: affinity (Ki)) it was 61400 nM.

On to `CCCn1c(=O)c2[nH]c(-c3ccc(OCC(=O)NC4CCCC4)cc3)nc2n(CCC)c1=O` [Compound 5, N-cyclopentyl-2-(4-(2,6-dioxo-1,3-dipropyl-2,3,6,7-tetrahydro-1H-purin-8-yl)phenoxy)acetamide], for which the Ki is 16700 nM at human A2BAR [1] (setting [7]), 13.9 ± 1.8 nM at A1 adenosine receptor [3], 26.3 nM at A2B adenosine receptor and 19.1 ± 5.1 nM on A2A adenosine receptor [4].

In the case of `CCCn1c(=O)c2[nH]c(-c3ccc(OCC(=O)N(Cc4ccccc4)Cc4ccccc4)cc3)nc2n(CCC)c1=O` [Compound 27], the Ki on human A2BAR [1] (setting [8]) is 120 nM.

As for `CCCn1c(=O)c2[nH]c(-c3ccc(OCC(=O)Nc4ccc(C#N)cc4)cc3)nc2n(CCC)c1=O` [Compound 13], the RT at human A2BAR [2] (25 °C) is 69 min and 69 ± 2.4 min.

In the case of `CCCn1c(=O)c2[nH]c(-c3ccc(OCC(=O)Nc4ccc([N+](=O)[O-])cc4)cc3)nc2n(CCC)c1=O` [Compound 14], on human A2BAR [1] (setting [7]), the Ki was 13.5 nM. At human A2BAR [2] (25 °C), the RT is 58 min and 58 ± 19 min. The Kd at human A2BAR [2] was found to be 12 ± 4.9 nM. Besides, the koff on human A2BAR [2] (read-out: koff (converted)) was 0.000283 s⁻¹. Also, the kon at human A2BAR [2] (read-out: kon (converted)) is 23300 M⁻¹ s⁻¹.

For `CCCn1c(=O)c2[nH]c(-c3ccc(OCC(=O)N(CC(=O)OCC)CC(=O)OCC)cc3)nc2n(CCC)c1=O` [Compound 11], the Ki at human A2BAR [1] (setting [8]) was 112 nM.

For the molecule `CCCn1c(=O)c2[nH]c(-c3ccc(OCC(=O)NC(c4ccccc4)c4ccccc4)cc3)nc2n(CCC)c1=O` [Compound 26], the Ki on human A2BAR [1] (setting [7]) was 37.9 nM. Further, at human A2BAR [2] (25 °C), the RT is reported as 19 ± 6.2 min. In addition, the Kd on human A2BAR [2] is 31 ± 16 nM. At human A2BAR [2] (read-out: koff (converted)), the koff was 0.000883 s⁻¹. On human A2BAR [2] (read-out: kon (converted)), the kon is 28300 M⁻¹ s⁻¹.

Regarding `CCCn1c(=O)c2[nH]c(-c3ccc(OCC(=O)NCc4ccccc4)cc3)nc2n(CCC)c1=O` [Compound 19], the Ki at A1 adenosine receptor [5] is 54.7 ± 21.2 nM; at A2A adenosine receptor [6] it was 23.8 ± 5.7 nM; on A1 adenosine receptor [3], 5.02 nM; on A2A adenosine receptor [4] it was 25.9 nM.

Turning to `CCCn1c(=O)c2[nH]c(-c3ccc(OCC(=O)NC4CCCCC4)cc3)nc2n(CCC)c1=O` [Compound 7, N-cyclohexyl-2-(4-(2,6-dioxo-1,3-dipropyl-2,3,6,7-tetrahydro-1H-purin-8-yl)phenoxy)acetamide], the Ki on human A2BAR [1] (setting [7]) is 951 nM; on A1 adenosine receptor [3] it was 23 ± 4.1 nM; at A2B adenosine receptor, 73.5 ± 25.8 nM; on A2A adenosine receptor [4], 19.3 ± 6.7 nM.

At human A2BAR [1], `CCCn1c(=O)c2[nH]c(-c3ccc(OCC(=O)Nc4ccc(C(C)=O)cc4)cc3)nc2n(CCC)c1=O` [Compound 16] showed a Ki of 3.03 nM. On human A2BAR [2], the koff was 0.000317 s⁻¹, the kon was 183000 M⁻¹ s⁻¹ and the Kd is 1.7 ± 0.58 nM. The RT on human A2BAR [2] (25 °C) is 54 min and 54 ± 18 min.

For `CCCn1c(=O)c2[nH]c(-c3ccc(OCC(=O)Nc4ccc(C(F)(F)F)cc4)cc3)nc2n(CCC)c1=O` [Compound 15], on human A2BAR [1] (setting [7]), the Ki was 2.86 nM. Besides, the on-rate constant (kon) result on human A2BAR [2] (competing ligand at 1.0-fold IC50, […] [3H]PSB-603, up to 3 hr, 25 °C) is reported as “Kinetics outside the range of the assay (see text)”.

`CCCn1c(=O)c2[nH]c(-c3ccc(OCC(=O)Nc4ccc(C)cc4)cc3)nc2n(CCC)c1=O` [Compound 12]: at human A2BAR [1] (setting [7]), the Ki is 3.42 nM. For the same molecule, on human A2BAR [2] (25 °C), the RT was 55 ± 25 min. The Kd at human A2BAR [2] is 2.7 ± 1.5 nM. Further, the koff on human A2BAR [2] (read-out: koff (converted)) was 0.0003 s⁻¹. Moreover, at human A2BAR [2] (read-out: kon (converted)), the on-rate (kon) is 117000 M⁻¹ s⁻¹.
